Test results from PMC5159837, “Novel inhibitors of Mycobacterium tuberculosis GuaB2 identified by a target based high-throughput phenotypic screen” (Scientific Reports, 2016).
Values after ≈ are worked out from the molar mass of the structure shown. Values joined by “and” are separate entries in the source; they are usually repeats but may differ in a detail not shown here. Equal entries are not always repeated. Where two headings read alike, the source gives them in different places.

Tests used:
[1] = biological target: T1, Mtb GuaB2 (Mycobacterium tuberculosis, UniProt P9WKI7); assay: Biochemical assay of GuaB2 inhibition; conditions: duplicate, mean
T1 construct: made in house
Method: The Mtb ortholog of the enzyme was recombinantly expressed, purified and assayed as previously described. Inhibition was determined at 0.1 mM, using 12 μg GuaB2 with the addition of 0.5% CHAPS. Each assay was normalised for DMSO concentration. Data was recorded in duplicate and analysed using Graphpad Prism 6.0.

[2] = tested on: M. bovis BCG pMV261; assay: microbe, parasite or virus in culture; format: cell-based; conditions: Mycobacterium tuberculosis variant bovis BCG, 168 h, read-out: pXC50 for Empty Vector (converted)
[3] = tested on: M. bovis BCG pMV261-guaB2; assay: microbe, parasite or virus in culture; format: cell-based, Mycobacterium bovis BCG; conditions: for IC50: Mycobacterium tuberculosis variant bovis BCG, BCG, 168 h, 7 days, read-out: pXC50 Mean for GuaB2 (converted)
[4] = tested on: M. tuberculosis H37Rv; assay: MIC against H37Rv; format: cell-based; conditions: Mycobacterium tuberculosis
From the text: Table 1 Z’ and pXC50 values for dose response validation of GuaB2 targeting compounds.

[5] = 0.1 mM compound, 12 μg GuaB2, 0.5% CHAPS, read-out: % Biochemical Inhibition of Mtb GuaB2
[6] = 0.1 mM compound, 12 μg GuaB2, 0.5% CHAPS
[7] = read-out: % Biochemical Inhibition of Mtb GuaB2, 0.1 mM compound, 12 μg GuaB2, 0.5% CHAPS

T1 sequence (P9WKI7 whole entry, looked up): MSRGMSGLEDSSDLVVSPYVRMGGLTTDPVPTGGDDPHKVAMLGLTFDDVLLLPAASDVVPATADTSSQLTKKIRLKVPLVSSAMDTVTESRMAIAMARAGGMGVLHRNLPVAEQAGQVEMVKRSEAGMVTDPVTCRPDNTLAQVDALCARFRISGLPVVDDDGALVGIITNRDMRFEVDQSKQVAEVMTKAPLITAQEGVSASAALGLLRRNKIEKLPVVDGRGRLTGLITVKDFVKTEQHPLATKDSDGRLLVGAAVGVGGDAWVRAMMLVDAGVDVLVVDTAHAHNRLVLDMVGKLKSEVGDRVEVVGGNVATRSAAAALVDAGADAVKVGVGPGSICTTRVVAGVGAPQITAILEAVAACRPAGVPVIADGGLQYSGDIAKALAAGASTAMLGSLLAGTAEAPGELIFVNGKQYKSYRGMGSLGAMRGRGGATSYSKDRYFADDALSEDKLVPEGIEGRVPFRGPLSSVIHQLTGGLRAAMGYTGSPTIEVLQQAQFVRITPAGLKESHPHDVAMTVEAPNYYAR

Structure (SMILES) | inhibition at 100 µM [1, 5] | % Biochemical Inhibition of Mtb GuaB2 [1, 6] | IC50 [2] | Shift pIC50 [3] | IC50 [3] | MIC [4] | inhibition at 100 µM [1, 7]
Cc1ccc([N+](=O)[O-])cc1NC(=O)Nc1cccc(Cl)c1 [DPU-2, reference compound] | 44.6% |  |  |  |  |  | 
NNC(=O)c1ccncc1 [INH, isoniazid, reference compound] |  | −9% and −8.88% |  |  |  |  | 
CC(=O)Nc1ccc(-c2ccc3ncc(N4CCN(C)CC4)nc3c2)cn1 [JAGC_1, N-(5-(3-(4-methylpiperazin-1-yl)quinoxalin-6-yl)pyridin-2-yl)acetamide] | 23.1% |  | 8.91 µM | 1.05 | ≥ 100 µM | > 80 µM | 
CCOc1ccc(C(=O)Nc2cc(Cl)c3c(c2)CNCC3)cc1C(C)=O [JAGC_2, 3-acetyl-N-(5-chloro-1,2,3,4-tetrahydroisoquinolin-7-yl)-4-ethoxybenzamide] |  | 26.53% | 8.32 µM | 0.84 | 57.5 µM | > 80 µM | 26.5%
COC(=O)c1c(NC(=O)N2CCNCC2)sc2c1CC(C)(C)OC2 [JAGC_3, methyl 5,5-dimethyl-2-(piperazine-1-carboxamido)-4,7-dihydro-5H-thieno[2,3-c]pyran-3-carboxylate] | 21.8% |  | 10.2 µM | 0.99 | ≥ 100 µM | > 80 µM | 
COc1ccc(Cl)c2sc(N(CCN(C)C)C(C)=O)nc12 [JAGC_4, N-(7-chloro-4-methoxybenzo[d]thiazol-2-yl)-N-(2-(dimethylamino)ethyl)acetamide] | 20.7% |  | 22.9 µM | 0.64 | ≥ 100 µM | > 80 µM | 
CC(C)CCN(c1ccc(C#N)c(Cl)c1)[C@H]1CCNC1 [JAGC_5, (S)-2-chloro-4-(isopentyl(pyrrolidin-3-yl)amino)benzonitrile] | 20.6% |  | 4.37 µM | 0.94 | 38 µM | > 100 µM | 
Clc1cc2ccccc2c(N2CCNCC2)n1 [JAGC_6, 3-chloro-1-(piperazin-1-yl)isoquinoline] |  | 15.44% | 3.8 µM | 1.07 | 44.7 µM | > 80 µM | 12.3%
CC1CCC(NC(=O)Nc2ccc3snnc3c2)CC1 (stereo not drawn) [JAGC_7, 1-(benzo[d][1,2,3]thiadiazol-5-yl)-3-(4-methylcyclohexyl)urea] | 12.2% |  | 4.17 µM | 0.37 | 9.77 µM | 50 µM (≈ 14.5 µg/mL) | 
